Laboratory results taken from patent US9006440B2, “Furopyridine derivatives” (Merck Patent GmbH, priority 2010, dated 2015).

Biological target: T1, Syk (Homo sapiens, UniProt P43405)
T1 construct: purchased BPS Bioscience, CA, USA
Assay: Syk enzyme assay (SYK flash plate assay / Caliper mobility shift)
Format: biochemical
Description: The kinase assay is performed either as 384-well Flashplate assay (for e.g. Topcount measurement) or as 384-well Image-Flashplate assay (for LEADseeker measurement).
2.5 nM SYK, 400 nM Biotin-Aha-Aha-KEDPDYEWPSAKK
and 10 μM ATP (spiked with 0.3 μCi 33P-ATP/well) are incubated in a total volume of 50 μl (60 mM Hepes, 10 mM MgCl2, 1.2 mM Dithiothreitol, 0.02% Brij35, 0.1% BSA, pH 7.5) with or without test compound for 1 hours at 30° C. The reaction is stopped with 25 μl 200 mM EDTA. After 30 Min at 30° C. the liquid is removed and each well washed thrice with 100 μl 0.9% sodium chloride solution. Non-specific reaction is determined in presence of 0.1 μM Staurosporine. Radioactivity is measured with Topcount (when using Flashplates) or with LEADseeker (when using Image-Flashplates) respectively. Results (e.g. IC50-values) are calculated with program tools provided by the IT-department (e.g. Symyx Assay Explorer, Genedata Screener). Enzymatic Assays Using the Caliper LifeSciences Technology
The assays described here are performed on the Caliper Life Sciences LC3000 system This technology provides data on enzyme activity via measurement of the relative amounts of phosphorylated or unphosphorylated fluorescently labelled substrate peptide at the end of an enzymatic reaction. These different states of peptide are resolved by applying a potential difference across the sample. The presence of the charged phosphate group on the product (as opposed to the substrate) causes a different peptide mobility between the two peptides. This is visualized by excitation of the fluorescent label on the substrate and product peptides and represented as peaks within the analysis software.
In order to measure inhibitor activity of kinase inhibitors on this technology, a TTP Mosquito liquid handling instrument is used to place 0.25 ul of the appropriate concentration of inhibitor in 100% DMSO (for a dose response curve calculation) into each well of a 384-well plate. To this reaction components are added to a final volume of 25 ul. The table below indicates the sequences and concentrations for the assays described in this report. Standard components are 1 mM DTT (Sigma, D0632), 1 mM MgCl2 (Sigma, M1028), 100 mM HEPES pH 7.5 (Calbiochem, 391338), 0.015% Brij-35 (Sigma, B4184).
The reaction is incubated for 90 min at 25 C, and then stopped by the addition of 70 ul of Stop buffer (100 mM HEPES pH 7.5, 0.015% Brij-35, 10 mM EDTA (Sigma, E7889)).
The plate is read on a Caliper LC 3000 in an Off-Chip mobility shift assay format, on a 12-sipper chip. Unphosphorylated substrate and phosphorylated product peptide resolve as separate peaks allowing direct measurement of percentage of conversion of substrate to product. The percent conversion can be plotted against concentration of inhibitor to produce a sigmoidal dose response curve, from which an IC50 can be calculated using GeneData Condoseo or a similar product.

| SMILES | IC50 [µM] |
| --- | --- |
| CNC(=O)c1cccc(-c2ccnc3cc(-c4cc(OC)c(OC)c(OC)c4)oc23)c1 [Compound A7, N-Methyl-3-[2-(3,4,5-trimethoxy-phenyl)-furo[3,2-b]pyridin-7-yl]-benzamide] | < 0.3 |
| COc1cc(-c2cc3nccc(-c4cccc(C(=O)NCCN(C)C)c4)c3o2)cc(OC)c1OC [Compound A8, N-(2-Dimethylamino-ethyl)-3-[2-(3,4,5-trimethoxy-phenyl)-furo[3,2-b]pyridin-7-yl]-benzamide] | < 0.3 |
| COC(=O)c1cccc(-c2ccnc3cc(-c4cc(OC)c(OC)c(OC)c4)oc23)c1 [Compound A11, 3-[2-(3,4,5-Trimethoxy-phenyl)-furo[3,2-b]pyridin-7-yl]-benzoic acid methyl ester] | 0.3 to 3 |
| COc1cc(-c2cc3nccc(-c4ccc(C#N)cc4)c3o2)cc(OC)c1OC [Compound A12, 4-[2-(3,4,5-Trimethoxy-phenyl)-furo[3,2-b]pyridin-7-yl]-benzonitrile] | 3 to 50 |
| COc1cc(-c2cc3nccc(-c4cccc5ncccc45)c3o2)cc(OC)c1OC [Compound A18, 5-[2-(3,4,5-Trimethoxy-phenyl)-furo[3,2-b]pyridin-7-yl]-quinoline] | 0.3 to 3 |
| COc1cc(-c2cc3nccc(-c4ccccc4C)c3o2)cc(OC)c1OC [Compound A21, 7-o-Tolyl-2-(3,4,5-trimethoxy-phenyl)-furo[3,2-b]pyridine] | < 0.3 |
| COc1cc(-c2cc3nccc(-c4cccc5ccccc45)c3o2)cc(OC)c1OC [Compound A22, 7-Naphthalene-1-yl-2-(3,4,5-trimethoxy-phenyl)-furo[3,2-b]pyridine] | 0.3 to 3 |
| COc1cc(-c2cc3nccc(-c4ccc5ncccc5c4)c3o2)cc(OC)c1OC [Compound A23, 6-[2-(3,4,5-Trimethoxy-phenyl)-furo[3,2-b]pyridin-7-yl]-quinoline] | < 0.3 |
| COc1cc(-c2cc3nccc(-c4ccnc5ccccc45)c3o2)cc(OC)c1OC [Compound A24, 4-[2-(3,4,5-Trimethoxy-phenyl)-furo[3,2-b]pyridin-7-yl]-quinoline] | 0.3 to 3 |
| COc1cc(-c2cc3nccc(-c4ccc(C)c5ncccc45)c3o2)cc(OC)c1OC [Compound A26, 8-Methyl-5-[2-(3,4,5-trimethoxy-phenyl)-furo[3,2-b]pyridin-7-yl]-quinoline] | 0.3 to 3 |
| COc1cc(-c2cc3nccc(-c4ccc5cc[nH]c5c4)c3o2)cc(OC)c1OC [Compound A27, 7-(1H-Indol-6-yl)-2-(3,4,5-trimethoxy-phenyl)-furo[3,2-b]pyridine] | < 0.3 |
| COc1cc(-c2cc3nccc(-c4cccc(OCc5ccccc5)c4)c3o2)cc(OC)c1OC [Compound A31, 7-(3-Benzyloxy-phenyl)-2-(3,4,5-trimethoxy-phenyl)-furo[3,2-b]pyridine] | 3 to 50 |
| COc1cc(-c2cc3nccc(-c4ccc(C)cc4C)c3o2)cc(OC)c1OC [Compound A32, 7-(2,4-Dimethyl-phenyl)-2-(3,4,5-trimethoxy-phenyl)-furo[3,2-b]pyridine] | 0.3 to 3 |
| CCOC(=O)Cn1cc(-c2ccnc3cc(-c4cc(OC)c(OC)c(OC)c4)oc23)cn1 [Compound A33, {4-[2-(3,4,5-Trimethoxy-phenyl)-furo[3,2-b]pyridin-7-yl]-pyrazol-1-yl}-acetic acid ethyl ester] | < 0.3 |
| COc1cc(-c2cc3nccc(-c4cnn(C)c4)c3o2)cc(OC)c1OC [Compound A34, 7-(1-Methyl-1H-pyrazol-4-yl)-2-(3,4,5-trimethoxy-phenyl)-furo[3,2-b]pyridine] | < 0.3 |
| Cc1cc(C(=O)NC(C)(C)CO)cc(-c2cc3nccc(-c4ccccc4)c3o2)c1 [Compound A43, N-(2-Hydroxy-1,1-dimethyl-ethyl)-3-methyl-5-(7-phenyl-furo[3,2-b]pyridin-2-yl)-benzamide] | < 0.3 |
| COc1cc(-c2cc3nccc(-c4ccc(CNC(C)=O)cc4)c3o2)cc(OC)c1OC [Compound A54, N-{4-[2-(3,4,5-Trimethoxy-phenyl)-furo[3,2-b]pyridin-7-yl]-benzyl}-acetamide] | 0.3 to 3 |
| Fc1cc(F)cc(-c2cc3nccc(-c4cc(F)cc(F)c4)c3o2)c1 [Compound B1, 2,7-Bis-(3,5-difluoro-phenyl)-furo[3,2-b]pyridine] | 3 to 50 |

| SMILES | IC50 [µM] |
| --- | --- |
| Fc1ccc(-c2cc3nccc(-c4ccc(F)cc4)c3o2)cc1 [Compound B6, 2,7-Bis-(4-fluoro-phenyl)-furo[3,2-b]pyridine] | 3 to 50 |
| COc1cc(-c2cc3nccc(NCc4cccnc4N(C)S(C)(=O)=O)c3o2)cc(OC)c1OC [Compound B7, N-Methyl-N-(3-{[2-(3,4,5-trimethoxy-phenyl)-furo[3,2-b]pyridin-7-ylamino]-methyl}-pyridin-2-yl)-methanesulfonamide] | 3 to 50 |
| COc1cc(-c2cc3nccc(NCc4cccc(S(C)(=O)=O)c4)c3o2)cc(OC)c1OC [Compound B9] | 3 to 50 |
| O=C(Nc1ccc(Oc2ccnc3cc(-c4ccccc4)oc23)cc1)c1cccn(-c2ccc(F)cc2)c1=O [Compound B13, 1-(4-Fluoro-phenyl)-2-oxo-1,2-dihydro-pyridine-3-carboxylic acid [4-(2-phenyl-furo[3,2-b]pyridin-7-yloxy)-phenyl]-amide] | 0.3 to 3 |
| CCOc1ccn(-c2ccc(F)cc2)c(=O)c1C(=O)Nc1ccc(Oc2ccnc3cc(-c4ccccc4)oc23)cc1 [Compound B14, 4-Ethoxy-1-(4-fluoro-phenyl)-2-oxo-1,2-dihydro-pyridine-3-carboxylic acid [4-(2-phenyl-furo[3,2-b]pyridin-7-yloxy)-phenyl]-amide] | 0.3 to 3 |
| CN(c1ncccc1CNc1ccnc2cc(-c3ccccc3)oc12)S(C)(=O)=O [Compound B20, N-Methyl-N-{3-[(2-phenyl-furo[3,2-b]pyridin-7-ylamino)-methyl]-pyridin-2-yl}-methanesulfonamide] | 3 to 50 |
| COc1cc(-c2cc3nccc(Nc4ccc5c(n4)NC(=O)C(C)(C)O5)c3o2)cc(OC)c1OC [Compound B29, 2,2-Dimethyl-6-[2-(3,4,5-trimethoxy-phenyl)-furo[3,2-b]pyridin-7-ylamino]-4H-pyrido[3,2-b][1,4]oxazin-3-one] | 0.3 to 3 |
| COc1c(C)cc(-c2cc3nccc(-c4cc(C)c(OC)c(C)c4)c3o2)cc1C [Compound B32, 2,7-Bis-(4-methoxy-3,5-dimethyl-phenyl)-furo[3,2-b]pyridine] | 3 to 50 |
| Cc1cccc(-c2cc3nccc(-c4cccc(C)c4)c3o2)c1 [Compound B34, 2,7-Di-m-tolyl-furo[3,2-b]pyridine] | 3 to 50 |
| COc1ccc(-c2cc3nccc(-c4ccc(OC)cc4)c3o2)cc1 [Compound B35, 2,7-Bis-(4-methoxy-phenyl)-furo[3,2-b]pyridine] | 3 to 50 |
| c1cc(-c2ccc3c(c2)OCCO3)c2oc(-c3ccc4c(c3)OCCO4)cc2n1 [Compound B37, 2,7-Bis-(2,3-dihydro-benzo[1,4]dioxin-6-yl)-furo[3,2-b]pyridine] | 3 to 50 |
| COc1ccc(-c2cc3nccc(-c4ccc(OC)c(OC)c4)c3o2)cc1OC [Compound B39, 2,7-Bis-(3,4-dimethoxy-phenyl)-furo[3,2-b]pyridine] | 0.3 to 3 |
| COc1cccc(-c2cc3nccc(-c4cccc(OC)c4OC)c3o2)c1OC [Compound B42, 2,7-Bis-(2,3-dimethoxy-phenyl)-furo[3,2-b]pyridine] | 3 to 50 |
| CC(C)(C#N)c1ccc(-c2cc3nccc(-c4ccc(C(C)(C)C#N)cc4)c3o2)cc1 [Compound B55, 2-(4-{2-[4-(Cyano-dimethyl-methyl)-phenyl]-furo[3,2-b]pyridin-7-yl}-phenyl)-2-methyl-propionitrile] | 0.3 to 3 |
| C=C(C)c1ccc(-c2cc3nccc(Nc4ccc5[nH]ccc5c4C)c3o2)cc1 [Compound B62, [2-(4-Isopropenyl-phenyl)-furo[3,2-b]pyridin-7-yl]-(4-methyl-1H-indol-5-yl)-amine] | 3 to 50 |
| COc1cc(-c2cc3nccc(-c4cc(C)c(OC)c(C)c4)c3o2)cc(OC)c1OC [Compound B73, 7-(4-Methoxy-3,5-dimethylphenyl)-2-(3,4,5-trimethoxyphenyl)furo[3,2-b]pyridine] | 0.3 to 3 |
| COc1cc(-c2cc3nccc(-c4ccc(C(=O)NC5CCCC5)cc4)c3o2)cc(OC)c1OC [Compound B75, N-Cyclopentyl-4-(2-(3,4,5-trimethoxyphenyl)furo[3,2-b]pyridin-7-yl)benzamide] | 3 to 50 |
